From a melting point compilation (Tetko et al.)

Row | melting point [°C] | Compound
1 | 219 to 221 | Nc1ccc(-c2nc3cc(Br)ccc3[nH]2)cc1
2 | 112 to 114 | Cn1cc(Br)cc1C(=O)NC1CC1
3 | 87 to 89 | Nc1cccc(OCc2ccc(Cl)cc2)c1
4 | 146 to 148 | CS(=O)(=O)Nc1ccc(N)cc1Br
5 | 124 to 126 | Cc1cc(C)n(-c2ccc(N)cc2F)n1
6 | 95 to 97 | O=Cc1coc2ccc(F)cc2c1=O
7 | 114 to 116 | O=C(O)C=CC(=O)c1ccc(F)c(F)c1
8 | 179 to 181 | COc1ccc2[nH]c(NCc3ccccc3)nc2c1
9 | 179 to 181 | CCn1cnnc1-c1cccc(N)c1
10 | 203 to 205 | CCOC(=O)N1CCC(NC(N)=O)CC1
11 | 235 to 237 | Nc1c(Br)c(=O)[nH]c(=O)n1Cc1ccccc1
12 | 129 to 131 | NC(=O)CNCC(N)=O
13 | 72 to 74 | CC(C)C(Br)C(=O)N(C)C1CCCCC1 (stereo not drawn)
14 | 81 to 83 | O=S(=O)(c1ccc(CCl)o1)N1CCCC1
15 | 154 to 156 | O=[N+]([O-])c1ccc(-c2ncc(CO)o2)cc1
16 | 51 to 53 | CCN1C(=O)NC(C)C1=O (stereo not drawn)
17 | 89 to 91 | O=C1NCC2(CCCC2)O1
18 | 126 to 128 | O=C(CCCl)Nc1ccc(Br)cc1
19 | 83 to 85 | Nc1ccc(N2CCCC2)nc1
20 | 197 to 199 | Cc1nc2[nH]cnc2cc1Br
21 | 99 to 101 | Clc1ccnc2cc(Br)ccc12
22 | 79 to 81 | Cc1ccc(N2N=C(Br)CC2C(=O)O)cc1 (stereo not drawn)
23 | 48 to 52 | CC(=O)CC(=O)c1ccc(F)cc1

Row | melting point [°C] | Compound
24 | 129 to 131 | CCS(=O)(=O)c1ccc(F)c(C(=O)O)c1
25 | 84 to 86 | CN(C)C(=O)c1cccc(N)c1
26 | 128 to 130 | O=[N+]([O-])c1ccc(-c2nnc(CCl)o2)cc1
27 | 103 to 105 | CC(=O)Nc1cccc(C(C)O)c1 (stereo not drawn)
28 | 118 to 120 | COC(C)C(N)=NO (stereo not drawn)
29 | 159 to 161 | Nc1cc(F)c(OC2CCCCC2)cc1C(=O)O
30 | 229 to 231 | Cc1c(C(=O)O)oc2c(Cl)cccc12
31 | 65 to 67 | CC1CSc2ccc(Br)cc2C1=O (stereo not drawn)
32 | 203 to 205 | CCOc1ccc2nc(-c3ccc(N)cc3)sc2c1
33 | 174 to 176 | COc1cccc2[nH]cc(CC(=O)O)c12
34 | 100 to 102 | N#CCS(N)(=O)=O
35 | 143 to 147 | Nc1ccc(S(=O)(=O)Nc2cccc(C(F)(F)F)c2)cc1N
36 | 109 to 111 | O=C(O)c1ccnc(OCC(F)(F)F)c1
37 | 209 to 211 | NS(=O)(=O)CCN1C(=O)c2ccccc2C1=O
38 | 126 to 128 | CS(=O)(=O)c1ccc(F)c(NC(=O)CCl)c1
39 | 45 to 47 | N#CCCSc1ccccc1N
40 | 212 to 214 | CC(=O)Nc1ccc(S(=O)(=O)N2CCC(N)CC2)cc1
41 | 106 to 108 | Cc1cc(CN2CCSCC2)ccc1N
42 | 56 to 58 | ClCc1nc(-c2cc(Br)cs2)no1
43 | 152 to 154 | Cc1ccc2cccc(C(=O)O)c2n1
44 | 231 to 233 | COc1ccc2[nH]c(C(=O)O)cc2c1OC(F)F
45 | 121 to 123 | O=C(CCl)Nc1ccc(-c2ccccc2)cc1
46 | 105 to 107 | COc1ccc2cc(C#N)ccc2c1

Row | melting point [°C] | Compound
47 | 62 to 64 | NCCC(=O)Nc1ccccc1
48 | 273 to 275 | N#Cc1cnn(-c2ccncc2)c1N
49 | 93 to 95 | NC(CN1CCc2ccccc21)=NO
50 | 44 to 46 | CN(C)CCN1C(=O)C=CC1=O
51 | 93 to 95 | CC(C)c1ccc2c(c1)C(=O)C(=O)N2
52 | 127 to 129 | CC(C)n1c(S)nnc1N(C)C
53 | 117 to 119 | CNS(=O)(=O)c1ccc(N)cc1C
54 | 156 to 158 | CN1N=C(C(=O)O)CCC1=O
55 | 253 to 255 | CS(=O)(=O)Cc1ccc(C(=O)O)cc1
56 | 70 to 72 | OCc1cnn(-c2ccccc2)n1
57 | 101 to 105 | OCc1cc(Cl)c2c(c1)OCO2
58 | 153 to 155 | NC(=O)Cn1cnc([N+](=O)[O-])c1
59 | 283 to 285 | CNC(=O)c1n[nH]c(=O)c2ccccc12
60 | 103 to 106 | O=C(CCl)Nc1ccccc1-c1ccccc1
61 | 259 to 261 | COc1ccc(C(=O)O)cc1-c1ccc(C(C)(C)C)cc1
62 | 121 to 123 | NNC(=O)N1CCOCC1
63 | 79 to 81 | O=C(O)C1CCCc2sccc21 (stereo not drawn)
64 | 129 to 131 | Cc1nn(CCO)c(N)c1C
65 | 299 to 301 | CC1CC(C)CC2(C1)NC(=O)NC2=O (stereo not drawn)
66 | 192 to 194 | Nc1nnc(-c2cc(F)cc(Br)c2)s1
67 | 244 to 246 | Fc1ccc(-c2csc3ncnc(S)c23)cc1
68 | 150 to 152 | COc1cc(C=O)c([N+](=O)[O-])cc1OCC(F)(F)F
69 | 99 to 101 | COC(=O)N(C)c1ccc(O)cc1

Row | melting point [°C] | Compound
70 | 121 to 123 | CN(C)S(=O)(=O)c1ccc2c(c1)NCC2
71 | 115 to 117 | CNC(=O)c1cc(Oc2ccccc2N)ccn1
72 | 126 to 128 | CC(C)C(Br)C(=O)Nc1cc(Cl)ccc1Cl (stereo not drawn)
73 | 157 to 159 | NC(=O)Cc1ccc(N)cc1
74 | 71 to 73 | CC(C)(C)CC(O)C(=O)O (stereo not drawn)
75 | 131 to 133 | O=C(Nc1cocn1)OCC(F)(F)F
76 | 173 to 175 | O=C(O)Cc1csc(-c2ncccn2)n1
77 | 40 to 42 | NC(CCc1ccccc1)=NO
78 | 97 to 99 | O=C(O)CCc1nc2ccccc2s1
79 | 144 to 146 | CC(C)(C)c1ccc(N)c(C(=O)O)c1
80 | 157 to 159 | O=C(c1cc(Cl)ccc1[N+](=O)[O-])N1CCCC1
81 | 135 to 137 | Cc1ccc(CNC(=O)C(C#N)=CN(C)C)cc1
82 | 224 to 226 | Nc1cccc(C(=O)Nc2ccncc2)c1
83 | 162 to 164 | O=C(O)COc1ccc(Cl)c2ccccc12
84 | 272 to 274 | Cc1nnc(-c2ccc(C(=O)O)cc2)[nH]1
85 | 65 to 67 | CC1CCC(C)N1c1cn[nH]c1 (stereo not drawn)
86 | 84 to 86 | O=C1CCc2c(Cl)cccc21
87 | 113 to 115 | CC1(C(=O)O)CCCc2ccccc21 (stereo not drawn)
88 | 222 to 224 | O=C(O)CNCC1CC1
89 | 219 to 221 | CC1(c2ccccc2Br)NC(=O)NC1=O (stereo not drawn)
90 | 218 to 221 | O=[N+]([O-])c1cc(Cl)cc(Cl)c1S(=O)(=O)Cl
91 | 146 to 148 | OCc1ccc2[nH]nnc2c1
92 | 105 to 107 | CCC(=O)Nc1ccc(Cl)c(N)c1

Row | melting point [°C] | Compound
93 | 215 to 217 | Cc1sc2nc(C(C)Cl)[nH]c(=O)c2c1C (stereo not drawn)
94 | 179 to 181 | Cc1ccc(C)c(-c2cnnc(N)n2)c1
95 | 170 to 172 | CCCC(NC(N)=O)C(=O)O (stereo not drawn)
96 | 187 to 189 | Cc1c(-c2ccccc2)sc(N)c1C(=O)N1CCOCC1
97 | 336 to 338 | Cc1ccc(C(=O)O)cc1NC(=O)NC(C)(C)C
98 | 58 to 60 | Cc1oc(-c2ccco2)nc1CCl
99 | 155 to 157 | Nc1cccc(C(=O)N2CCC(CO)CC2)c1
100 | 117 to 119 | NNC(=O)C(=O)N1CCCC1
101 | 48 to 50 | CCOc1c(OC)cc(C=O)cc1OC
102 | 93 to 95 | COC(=O)NCC(=O)O
103 | 98 to 100 | COC(=O)c1sc2ccccc2c1S(=O)(=O)Cl
104 | 189 to 191 | Cc1ccc(S(=O)(=O)Nc2cc(Cl)ccc2O)cc1
105 | 85 to 87 | Cc1cc(C)n(-c2ccc(C(F)(F)F)cc2N)n1
106 | 184 to 186 | NS(=O)(=O)c1cccc(-c2nnco2)c1
107 | 140 to 142 | Nc1cccc(C2SCCCS2)c1
108 | 69 to 71 | Nc1ccn(CCc2ccccn2)n1
109 | 89 to 91 | Nc1ccnn1-c1ccc(C(F)(F)F)cn1
110 | 170 to 172 | O=C1NCC(=O)N2CCOCC12 (stereo not drawn)
111 | 153 to 155 | COc1ccc(C(=O)O)cc1S(=O)(=O)Cl
112 | 68 to 70 | CCOc1ccc([N+](=O)[O-])cc1CCl
113 | 144 to 146 | O=C(O)c1cc(S(=O)(=O)Cl)c(Cl)cc1F
114 | 177 to 179 | Nc1cccc(CNC(=O)Nc2ccccc2Cl)c1
115 | 117 to 119 | O=C1COc2ccc(Br)cc2N1CCCl

Row | melting point [°C] | Compound
116 | 227 to 228 | CNC(=Nc1cc(C)nn1-c1ccccc1)c1ccc(F)cc1
117 | 62 to 64 | N#CCc1ccc([N+](=O)[O-])cn1
118 | 36 to 38 | CC(O)Cc1ccc(Br)c(F)c1 (stereo not drawn)
119 | 148 to 150 | N#Cc1ccc(Oc2ccc(O)cc2)cc1
120 | 174 to 176 | C#CCNC(=O)Nc1ccc(C)cc1
121 | 70 to 72 | N#CCc1ccc(Oc2ncccn2)cc1
122 | 50 to 52 | Cc1ccc(-n2c(C)cc(CC(=O)O)c2C)cc1
123 | 183 to 185 | CCc1ccc(-n2nc(C(=O)O)c3c2CCC3)cc1
124 | 157 to 159 | COC(=O)c1sc2cccc(F)c2c1CBr
125 | 77 to 79 | CCC(C)c1ccc(-c2csc(N)n2)cc1 (stereo not drawn)
126 | 152 to 154 | O=C(O)CNC(=O)C(F)(F)F
127 | 97 to 99 | O=C(O)Cc1csc(-c2ccc(O)cc2)n1
128 | 85 to 87 | Nc1cccc(N2CCCS2(=O)=O)c1
129 | 249 to 251 | Cc1sc(C(=O)O)cc1S(N)(=O)=O
130 | 45 to 47 | Cc1ccc(N)c(Cl)c1Cl
131 | 83 to 85 | O=C(O)CN1CCCS1(=O)=O
132 | 162 to 166 | O=C(O)c1cc2c(s1)CCCCC2
133 | 164 to 167 | CC(Oc1ccc(F)cc1)C(=O)NN (stereo not drawn)
134 | 74 to 76 | NC(=NO)C1CCCC1
135 | 140 to 142 | Nc1ccn(CCc2ccncc2)n1
136 | 110 to 112 | CC(C)C(NC(=O)Cc1ccccc1)C(=O)O (stereo not drawn)
137 | 198 to 200 | COc1ccc(-c2cc(C(=O)O)nn2-c2ccccc2)cc1
138 | 309 to 311 | O=c1[nH]cnc2cnc(Cl)cc12

Row | Compound | melting point [°C]
139 | Oc1ccc2c(c1)CNCC2 | 194 to 196
140 | NCC(O)c1ccccc1F (stereo not drawn) | 62 to 64
141 | Cc1cc(C(=O)CBr)ccc1O | 119 to 121
142 | Brc1ccc(CN2CCNCC2)s1 | 50 to 52
143 | Cc1ccc(NC2=NC(C)(C)CS2)cc1 | 164 to 166
144 | C1CCc2nnc(CN3CCNCC3)n2CC1 | 158 to 162
145 | [N-]=[N+]=Nc1cccc2cccnc12 | 42 to 44
146 | CCc1nnn[nH]1 | 93 to 95
147 | CN1CCN(c2ccc(F)cc2N)CC1 | 126 to 128
148 | CCC(C)n1nc(C(=O)O)cc1C (stereo not drawn) | 103 to 105
